We go through three compounds from patent US7189731B2, “Substituted 7-azaquinazoline compounds useful as p38 kinase inhibitors” (Roche Palo Alto LLC, priority 2003, dated 2007).

By IC50 is commonly meant the point on the concentration scale where inhibition reaches its midpoint. Broadly, the melting point is the temperature of the solid-liquid transition.

The target in one series is T1, p38 MAP kinase (Homo sapiens, UniProt Q16539).
T1 construct: made in house; host or cells: E. coli (co-expressed with SEK-1 and MEKK)
T1 sequence (Q16539 whole entry): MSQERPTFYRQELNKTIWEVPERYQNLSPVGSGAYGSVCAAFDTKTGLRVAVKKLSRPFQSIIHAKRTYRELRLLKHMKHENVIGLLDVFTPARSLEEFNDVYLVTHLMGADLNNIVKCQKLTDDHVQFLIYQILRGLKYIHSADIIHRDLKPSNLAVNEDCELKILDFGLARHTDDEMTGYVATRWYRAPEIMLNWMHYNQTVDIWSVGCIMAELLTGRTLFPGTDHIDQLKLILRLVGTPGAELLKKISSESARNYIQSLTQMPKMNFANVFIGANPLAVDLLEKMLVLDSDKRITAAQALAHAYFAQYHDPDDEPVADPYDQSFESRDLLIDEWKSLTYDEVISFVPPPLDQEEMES
Nature of the series: Inhibition of p38 (MAP) Kinase-In Vitro Assay. It is filed as biochemical. As to conditions: approximate p38 inhibitory activities; concentration causing 50% inhibition of the p38 enzyme; γ-33P-ATP transfer to MBP; read-out: IC50 μM (P38 MAP KINASE E-03). The method, then: The p-38 MAP kinase inhibitory activity of compounds of this invention in vitro was determined by measuring the transfer of the y-phosphate from γ-^33P-ATP by p38 kinase to Myelin Basic Protein (MBP), using the a minor modification of the method described in Ahn et al., J. Biol. Chem., Vol. 266 (7), 4220–4227 (1991).
The phosphorylated form of the recombinant p38 MAP kinase was expressed with SEK-1 and MEKK in E. Coli (see Khokhlatchev et al., J. Biol. Chem. Vol. 272(17), pp. 11057–11062 (1997)), and then purified by affinity chromatography using a Nickel column.
The phosphorylated p38 MAP kinase was diluted in kinase buffer (20 mM 3-(N-morpholino)propanesulfonic acid, pH 7.2, 25 mM β-glycerol phosphate, 5 mM ethylene glycol-bis(beta-aminoethyl ether)-N,N,N′,N′-tetraacetic acid, 1 mM sodium vanadate, 1 mM dithiothreitol, 40 mM magnesium chloride). Test compound dissolved in DMSO or only DMSO (control) was added, and the samples were incubated for 10 min. at 30° C. The kinase reaction was initiated by the addition of a substrate cocktail containing MBP and γ-^33P-ATP. After incubating for an additional 20 min. at 30° C., the reaction was terminated by adding 0.75% phosphoric acid. The phosphorylated MBP was then separated from the residual γ-^33P-ATP using a phosphocellulose membrane (Millipore, Bedfrod, Mass.) and quantitated using a scintillation counter (Packard, Meriden, Conn.).

For the compound `CC(C)Nc1ncc2cc(Oc3ccc(F)cc3F)ncc2n1` [Example 2, [6-(2,4-Difluoro-phenoxy)-pyrido[3,4-d]py-rimidin-2-yl]-iso-propyl-amine], the IC50 at p38 MAP kinase was below 0.5 µM.
In the case of `Fc1ccc(Oc2cc3cnc(NC4CCOCC4)nc3cn2)c(F)c1` [Example 4, [6-(2,4-Difluoro-phenoxy)-pyrido[3,4-d]py-rimidin-2-yl]-(tet-rahydro-pyran-4-yl)-amine], on p38 MAP kinase, the IC50 was below 0.3 µM.
With `CS(=O)(=O)N1CCC(Nc2ncc3cc(Oc4ccc(F)cc4F)ncc3n2)CC1` [Example 1, [6-(2,4-Difluoro-phenoxy)-pyrido[3,4-d]pyrimidin-2-yl]-(1-methanesulfonyl-piperidin-4-yl)-amine], the melting point was 209.9 to 211.9 °C. At p38 MAP kinase, the 50% inhibitory concentration (IC50) was below 0.05 µM.
